Measured values reported in paper PMC4661883, “Cell-Penetrating Ability of Peptide Hormones: Key Role of Glycosaminoglycans Clustering” (International Journal of Molecular Sciences, 2015).

Key:
[1] = previously shown; cited from earlier work
Description: We recently reported that upon binding to sulfated GAGs, PACAP38 undergoes a random coil-to-α-helix conformational conversion. […] Thus, we evaluated if the lower efficacy of cellular uptake of representative peptides of the secretin/glucagon/GHRH superfamily and of calcitonin could not be ascribed to the incapacity of ...

[2] = previously shown; cited from earlier work; remark: listed apart in the source
Description: This could be related to the fact that arginine has a higher affinity for sulfated GAGs than lysine.

[3] = Heparin affinity chromatography (HiTrap Heparin HP sepharose column, NaCl gradient); format: binding, porcine; details: 20 mM phosphate pH 7.4, NaCl gradient
Method: (A) Chromatograms of PACAP38 elution with increasing NaCl concentration on a sepharose heparin column connected to a FPLC Aktapure system.
The relative binding affinity of the peptides for sulfated GAGs was evaluated using a 1 mL HiTrap Heparin HP column packed with sepharose and immobilized heparin from porcine intestinal mucosa (GE Healthcare, Baie-d'Urfé, QC, Canada). The column was connected to a FPLC Aktapure system (GE Healthcare) and equilibrated with phosphate buffer (20 mM, pH 7.4) prior to injection. Five hundred microliters of 0.5 mg/mL peptide solutions were injected at a flow rate of 0.5 mL/min. After injection, the elution consisted of an isocratic step of 5 mL phosphate buffer (20 mM, pH 7.4) followed by a gradient from 0 to 2 M NaCl in phosphate buffer (pH 7.4). Peptide elution was monitored using absorbance at 230 nm.

[4] = Heparin clustering measured by turbidity at 400 nm, heparin-into-peptide titration; format: physicochemical; details: 1.25 µL aliquots of 100 µM heparin into 1 mL 50 µM peptide, 20 mM phosphate, 100 mM NaCl, pH 7.4
Method: Each peak corresponds to the injection of 1.25 μL of a 100 μM heparin solution (20 mM phosphate, 100 mM NaCl, pH 7.4) into a 1 mL 50 μM peptide solution (20 mM phosphate, 100 mM NaCl, pH 7.4).
The formation of macromolecular GAG-peptide clusters was monitored by measuring the light scattering at 400 nm, as previously described [27, 28], using a 100 Bio Cary UV-visible spectrophotometer (Varian, Malton, ON, Canada). Briefly, for the heparin-into-peptide titration, a 1 cm length quartz cuvette was filled with 1 mL of a 50 μM peptide solution (20 mM phosphate buffer, 100 mM·NaCl, pH 7.4) and 1.25 μL aliquots of a 100 μM heparin solution (20 mM phosphate buffer, 100 mM·NaCl, pH 7.4) were successively added. The solution was gently mixed by vortex and the turbidity at 400 nm was immediately measured. For the peptide-into-heparin titration, a 1 cm length quartz cuvette was filled with 1 mL of a 10 μM heparin solution (20 mM phosphate buffer, 100 mM·NaCl, pH 7.4) and 12.5 μL aliquots of a 200 μM peptide solution (20 mM phosphate buffer, 100 mM·NaCl, pH 7.4) were successively added. The solution was gently mixed by vortex and the turbidity at 400 nm was immediately measured. Data was expressed as solution turbidity at 400 nm as function of peptide/heparin or heparin/peptide molar ratio.

[5] = test system: CHO pgs-A-745 cells; assay: Cellular uptake of fluorescently labelled peptides by flow cytometry, GAGs-deficient CHO pgs-A-745 cells; format: cell-based, Chinese hamster; details: 1 µM fluorescently labelled peptide, 1 h at 37 °C
Method: Figure 1 Cellular uptake of cationic peptide hormones and TAT peptide. […] Data represent the relative mean fluorescence intensity (± S.E.M.) of gated cells from at least 3 individual experiments and results are expressed as a percentage of the median fluorescence for 1 μM PACAP38 in CHO K1 cells. Cells were incubated for 1 h at 37 °C in 5% CO2 with fluorescently labelled peptides, washed twice in HBSS, treated with 100 μg/mL heparin for 5 min, detached by trypsin treatment, washed by centrifugation and resuspended in ice-cold sorting buffer before flow cytometry analysis.
Chinese hamster ovary cells K1 (CHO K1; obtained from ATCC, Manassas, VA, USA) and xylosyltransferase deficient cells (CHO pgs-A-745; obtained from ATCC) were maintained in Ham’s F12 medium supplemented with 10% foetal bovine serum (FBS), 2 mM L-glutamine and antibiotic (10,000 UI/mL penicillin, and 10,000 UI/mL streptomycin). […]
For cellular uptake measurement, CHO K1 and CHO pgs-A-745 were seeded in 12-well plates at a density of 30,000 cells/well for 48 h to approximately 75% confluence. […] To confirm that the fluorescence measured by flow cytometry was not associated to non-specific binding of the FITC-peptides at the cell surface, we performed the analysis after treatment with the fluorescent quencher trypan blue. […]

[6] = test system: CHO K1 cells; assay: Cellular uptake of fluorescently labelled peptides by flow cytometry, CHO K1 cells; format: cell-based, Chinese hamster; details: 1 µM fluorescently-labelled (FITC-Ahx N-terminal) peptide, 1 h at 37 °C, 1% FBS Ham's F12, heparin wash and trypsin, at least 3 experiments
Method: Chinese hamster ovary cells K1 (CHO K1; obtained from ATCC, Manassas, VA, USA) and xylosyltransferase deficient cells [18] (CHO pgs-A-745; obtained from ATCC) were maintained in Ham’s F12 medium supplemented with 10% foetal bovine serum (FBS), 2 mM L-glutamine and antibiotic (10,000 UI/mL penicillin, and 10,000 UI/mL streptomycin). Cells were maintained as a monolayer at 37 °C in a humidified atmosphere of 5% CO2 and 95% air and passaged by trypsinization when the cells reached 70%–80% confluence.

Sequence | Secondary conformation of TAT upon binding to heparin [1] | NaCl concentration at which TAT is eluted from heparin column [2] | Relative binding to heparin column (in words) [3] | Turbidity at 400 nm on titration of heparin into peptide (in words) [4] | Extent of internalization in CHO pgs-A-745 versus CHO K1 cells (in words) [5] | Cellular uptake, fold lower compared to PACAP38 [6]
GRKKRRQRRRPPQ [TAT(48–60), cationic peptide derived from the HIV-1 protein TAT, the control CPP used in this study] | adopts an α-helical conformation | around 1.8 M | – | – | – | –
CGNLSTCMLGTYTQDFNKFHTFPQTAIGVGAP [Calcitonin] | – | – | bind weakly to the heparin column | absence of turbidity | rather similar | 5- to 10 fold
